Results on one compound are retold here after article PMC7486443, “Generation of Phenothiazine with Potent Anti-TLK1 Activity for Prostate Cancer Therapy” (iScience, 2020).

Some targets named below: MKNK1 (Homo sapiens, UniProt Q9BUB5); PIK3CD (Homo sapiens, UniProt O00329); CAMK2B (Homo sapiens, UniProt Q13554); BRAF(V600E) (Homo sapiens, UniProt P15056, V600E); FLT3(ITD,F691L) (Homo sapiens, UniProt P36888, F691L/ITD); EIF2AK1 (Homo sapiens, UniProt Q9BQI3); CSNK1G3 (Homo sapiens, UniProt Q9Y6M4); ULK3 (Homo sapiens, UniProt Q6PHR2); BMPR1A (Homo sapiens, UniProt P36894); GRK4 (Homo sapiens, UniProt P32298); IRAK4 (Homo sapiens, UniProt Q9NWZ3); KIT(L576P) (Homo sapiens, UniProt P10721, L576P); EPHB4 (Homo sapiens, UniProt P54760).

Experiment in all cases: biochemical
Holding throughout (design): DiscoverX KINOMEscan scanMAX competition binding panel, single concentration, percent of control; remaining binding: dose or concentration left out as unconfirmed
Holding throughout (settings): KINOMEscan binding, percent of control; read-out: Table S4_SCANMAX REPORT - related to Fig. 1 / Percent Control

The next experiment concerns the target T1, JNK2 (Homo sapiens, UniProt P45984).
T1 construct: gene MAPK9

The target of experiment [1] is T2, RSK2(Kin.Dom.1-N-terminal) (Homo sapiens, UniProt P51812).
T2 construct: gene RPS6KA3; Kin.Dom.1-N-terminal

A further experiment addresses T3, BIKE (Homo sapiens, UniProt Q9NSY1).
T3 construct: gene BMP2K

In a further experiment the target is T4, CDK4-cyclinD1 (Homo sapiens, UniProt P11802).
T4 construct: cyclinD1
T4 sequence (P11802 whole entry): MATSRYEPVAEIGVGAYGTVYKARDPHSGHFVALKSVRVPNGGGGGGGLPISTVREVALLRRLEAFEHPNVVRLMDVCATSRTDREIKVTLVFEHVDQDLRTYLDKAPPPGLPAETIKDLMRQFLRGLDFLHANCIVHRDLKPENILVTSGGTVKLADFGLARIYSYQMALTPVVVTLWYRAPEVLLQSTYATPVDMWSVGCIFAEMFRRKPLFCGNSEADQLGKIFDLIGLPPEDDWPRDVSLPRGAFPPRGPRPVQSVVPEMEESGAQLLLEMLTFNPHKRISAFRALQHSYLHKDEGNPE
T4 sequence (P24385 whole entry partner): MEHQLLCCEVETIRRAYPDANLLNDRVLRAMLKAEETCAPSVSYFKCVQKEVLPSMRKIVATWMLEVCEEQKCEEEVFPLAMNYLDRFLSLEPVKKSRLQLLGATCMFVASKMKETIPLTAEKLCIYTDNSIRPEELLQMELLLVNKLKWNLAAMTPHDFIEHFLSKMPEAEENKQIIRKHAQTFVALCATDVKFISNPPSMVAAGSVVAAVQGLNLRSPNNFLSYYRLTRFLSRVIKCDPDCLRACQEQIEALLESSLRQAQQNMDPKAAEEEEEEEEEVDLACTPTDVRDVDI

The target in another experiment is T5, PYK2 (Homo sapiens, UniProt Q14289).
T5 construct: gene PTK2B

SMILES strings stand for the structures.

Sequence of CAMK2B (Q13554 whole entry): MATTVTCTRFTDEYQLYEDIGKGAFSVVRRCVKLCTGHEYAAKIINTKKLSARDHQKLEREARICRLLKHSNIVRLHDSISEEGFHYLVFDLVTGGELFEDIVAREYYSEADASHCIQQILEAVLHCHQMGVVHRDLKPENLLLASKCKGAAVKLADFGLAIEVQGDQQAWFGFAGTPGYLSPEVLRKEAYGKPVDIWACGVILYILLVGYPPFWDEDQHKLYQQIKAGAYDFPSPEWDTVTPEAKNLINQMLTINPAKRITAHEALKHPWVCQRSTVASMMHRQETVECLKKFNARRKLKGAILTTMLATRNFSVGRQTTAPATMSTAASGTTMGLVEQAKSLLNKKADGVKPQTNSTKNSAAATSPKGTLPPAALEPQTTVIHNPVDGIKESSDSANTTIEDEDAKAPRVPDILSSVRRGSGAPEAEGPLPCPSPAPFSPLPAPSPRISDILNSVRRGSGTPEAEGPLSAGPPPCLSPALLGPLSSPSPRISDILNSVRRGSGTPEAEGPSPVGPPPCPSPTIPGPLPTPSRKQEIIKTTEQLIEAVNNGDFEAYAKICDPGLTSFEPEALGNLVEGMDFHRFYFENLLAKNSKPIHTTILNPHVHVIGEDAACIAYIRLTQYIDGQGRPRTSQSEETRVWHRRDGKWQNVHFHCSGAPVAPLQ
Sequence of ULK3 (Q6PHR2 whole entry): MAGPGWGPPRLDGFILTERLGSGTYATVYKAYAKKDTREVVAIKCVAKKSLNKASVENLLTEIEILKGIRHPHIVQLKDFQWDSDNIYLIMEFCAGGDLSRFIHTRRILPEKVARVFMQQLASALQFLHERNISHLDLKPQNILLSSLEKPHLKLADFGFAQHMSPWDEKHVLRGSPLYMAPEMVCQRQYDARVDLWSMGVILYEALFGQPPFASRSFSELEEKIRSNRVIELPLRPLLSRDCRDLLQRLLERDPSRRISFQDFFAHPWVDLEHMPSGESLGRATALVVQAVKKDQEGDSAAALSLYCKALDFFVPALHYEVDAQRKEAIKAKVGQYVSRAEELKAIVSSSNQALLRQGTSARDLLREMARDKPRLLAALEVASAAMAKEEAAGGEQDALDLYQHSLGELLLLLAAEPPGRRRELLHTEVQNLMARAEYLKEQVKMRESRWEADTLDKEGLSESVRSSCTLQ
Sequence of PIK3CD (O00329 whole entry): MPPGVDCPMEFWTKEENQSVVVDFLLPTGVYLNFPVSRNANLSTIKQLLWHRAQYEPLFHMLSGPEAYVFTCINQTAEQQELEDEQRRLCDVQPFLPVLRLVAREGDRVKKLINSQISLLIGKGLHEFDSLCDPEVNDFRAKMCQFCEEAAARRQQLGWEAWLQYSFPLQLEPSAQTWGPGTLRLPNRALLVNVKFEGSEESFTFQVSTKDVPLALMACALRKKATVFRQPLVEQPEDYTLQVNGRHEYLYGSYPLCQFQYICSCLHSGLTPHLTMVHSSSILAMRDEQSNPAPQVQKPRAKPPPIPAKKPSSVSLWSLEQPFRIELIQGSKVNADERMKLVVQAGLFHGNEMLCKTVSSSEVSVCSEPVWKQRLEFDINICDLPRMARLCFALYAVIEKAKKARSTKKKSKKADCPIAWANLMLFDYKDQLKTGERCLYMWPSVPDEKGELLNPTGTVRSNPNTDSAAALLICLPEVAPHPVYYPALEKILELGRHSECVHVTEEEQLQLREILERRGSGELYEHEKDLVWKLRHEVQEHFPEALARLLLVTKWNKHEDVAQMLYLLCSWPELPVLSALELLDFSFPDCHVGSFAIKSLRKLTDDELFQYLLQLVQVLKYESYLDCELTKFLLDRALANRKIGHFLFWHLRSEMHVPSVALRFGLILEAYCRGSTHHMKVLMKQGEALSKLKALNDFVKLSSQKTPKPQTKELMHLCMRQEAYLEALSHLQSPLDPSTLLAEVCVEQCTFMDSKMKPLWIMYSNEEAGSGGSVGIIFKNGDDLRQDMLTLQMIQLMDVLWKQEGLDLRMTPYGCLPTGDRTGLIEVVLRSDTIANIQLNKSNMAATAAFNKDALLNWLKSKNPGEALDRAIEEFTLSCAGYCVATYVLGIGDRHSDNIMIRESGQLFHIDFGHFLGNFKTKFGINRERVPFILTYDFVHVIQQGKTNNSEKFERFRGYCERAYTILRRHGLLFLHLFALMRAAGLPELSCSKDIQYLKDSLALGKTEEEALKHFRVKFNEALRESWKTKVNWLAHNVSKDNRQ
Sequence of GRK4 (P32298 whole entry): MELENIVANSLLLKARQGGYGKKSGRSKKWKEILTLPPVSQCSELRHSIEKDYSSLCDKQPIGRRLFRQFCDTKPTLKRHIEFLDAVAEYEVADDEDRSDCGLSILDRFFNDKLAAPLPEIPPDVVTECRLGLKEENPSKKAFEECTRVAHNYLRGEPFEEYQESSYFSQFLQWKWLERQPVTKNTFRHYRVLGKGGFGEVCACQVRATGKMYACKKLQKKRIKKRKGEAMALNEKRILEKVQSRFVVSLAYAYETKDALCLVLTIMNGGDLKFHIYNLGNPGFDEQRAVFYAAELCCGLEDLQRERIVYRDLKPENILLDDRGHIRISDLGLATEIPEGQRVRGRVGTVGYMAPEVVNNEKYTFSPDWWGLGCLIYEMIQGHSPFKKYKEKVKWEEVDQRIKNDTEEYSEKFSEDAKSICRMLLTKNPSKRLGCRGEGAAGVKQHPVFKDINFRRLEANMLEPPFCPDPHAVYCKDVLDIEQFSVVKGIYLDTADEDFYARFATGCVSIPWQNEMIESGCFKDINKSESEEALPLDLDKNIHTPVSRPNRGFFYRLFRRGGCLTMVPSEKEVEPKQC
Sequence of BRAF(V600E) (P15056 whole entry V600E): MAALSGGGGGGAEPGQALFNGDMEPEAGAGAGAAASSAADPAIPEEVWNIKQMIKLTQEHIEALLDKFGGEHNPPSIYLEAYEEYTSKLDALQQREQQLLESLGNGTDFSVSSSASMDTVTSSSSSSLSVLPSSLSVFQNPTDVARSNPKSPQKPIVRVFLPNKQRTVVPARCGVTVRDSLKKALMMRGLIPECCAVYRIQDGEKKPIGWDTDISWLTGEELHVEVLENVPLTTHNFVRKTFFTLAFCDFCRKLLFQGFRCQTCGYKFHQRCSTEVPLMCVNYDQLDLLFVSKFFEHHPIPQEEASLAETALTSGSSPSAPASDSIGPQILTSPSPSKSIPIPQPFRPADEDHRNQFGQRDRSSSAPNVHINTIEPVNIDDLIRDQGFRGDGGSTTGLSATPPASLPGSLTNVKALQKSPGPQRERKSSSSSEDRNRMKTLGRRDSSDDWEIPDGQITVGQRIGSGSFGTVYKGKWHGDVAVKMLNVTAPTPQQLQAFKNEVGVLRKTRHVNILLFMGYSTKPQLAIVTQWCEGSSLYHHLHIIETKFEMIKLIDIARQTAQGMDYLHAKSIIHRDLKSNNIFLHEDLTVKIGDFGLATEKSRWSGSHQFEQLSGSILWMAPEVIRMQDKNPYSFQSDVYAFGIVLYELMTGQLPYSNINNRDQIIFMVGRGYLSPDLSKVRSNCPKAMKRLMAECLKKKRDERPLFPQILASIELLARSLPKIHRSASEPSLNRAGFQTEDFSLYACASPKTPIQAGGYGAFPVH
Sequence of CSNK1G3 (Q9Y6M4 whole entry): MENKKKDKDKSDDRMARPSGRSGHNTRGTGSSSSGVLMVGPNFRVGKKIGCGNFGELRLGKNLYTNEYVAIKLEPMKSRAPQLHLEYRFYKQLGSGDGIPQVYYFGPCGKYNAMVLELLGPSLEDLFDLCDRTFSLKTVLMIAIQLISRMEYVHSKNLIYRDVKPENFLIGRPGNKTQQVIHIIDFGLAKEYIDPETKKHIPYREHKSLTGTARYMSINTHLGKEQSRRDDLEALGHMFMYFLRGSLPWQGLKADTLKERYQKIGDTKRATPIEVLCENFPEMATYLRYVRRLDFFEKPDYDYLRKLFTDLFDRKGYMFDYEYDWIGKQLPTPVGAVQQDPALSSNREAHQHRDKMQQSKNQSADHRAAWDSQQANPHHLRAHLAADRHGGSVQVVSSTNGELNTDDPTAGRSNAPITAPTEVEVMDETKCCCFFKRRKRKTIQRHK
T1 sequence (P45984 whole entry): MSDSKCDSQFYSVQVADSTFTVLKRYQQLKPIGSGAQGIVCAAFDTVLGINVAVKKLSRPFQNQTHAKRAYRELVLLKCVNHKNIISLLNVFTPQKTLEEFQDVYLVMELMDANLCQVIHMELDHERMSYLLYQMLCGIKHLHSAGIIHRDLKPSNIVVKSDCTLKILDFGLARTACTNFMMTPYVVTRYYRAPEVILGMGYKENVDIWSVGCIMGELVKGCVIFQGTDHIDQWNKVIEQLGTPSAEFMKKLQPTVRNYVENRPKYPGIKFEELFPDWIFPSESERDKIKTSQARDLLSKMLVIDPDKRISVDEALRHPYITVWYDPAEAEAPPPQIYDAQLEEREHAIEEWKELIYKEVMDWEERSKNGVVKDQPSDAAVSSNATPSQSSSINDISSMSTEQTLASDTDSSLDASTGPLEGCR

Turning to `c1ccc2c(c1)Sc1ccccc1N2CCN1CCOCC1` [J54], the remaining binding at MKNK1 came to 92%; on PIK3CD it was 100%; on CAMK2B, 93%; on JNK2 it was 84%; at BRAF(V600E) it was 100%; on FLT3(ITD,F691L), 65%. The remaining binding on EIF2AK1 was determined as 90%; at CSNK1G3, 100%; on ULK3, 79%; at BMPR1A it was 72%; in experiment [1], 97%; at BIKE it was 52%. In addition, the remaining binding at CDK4-cyclinD1 was 36%; at GRK4 it was 54%; at IRAK4 it was 100%; at KIT(L576P) it was 100%; at EPHB4 it was 100%; on PYK2, 100%.
